Measurements from US12643867B2, “Compositions and uses thereof” (University of Virginia Patent Foundation, priority 2017, dated 2026).

Key:
recombinant RAF1 = biological target: T1, recombinant RAF1 (Homo sapiens, UniProt P04049); test: RAF1 (CRAF) substrate assay; format: biochemical; settings: RAF1-HEK293T proteomes
T1 construct: expressed in transfected cells; host or cells: HEK293T
Experimental: Given the potential for indirect inhibitory effects in the competition studies in lysates, ritanserin activity was tested in a CRAF substrate assay. Ritanserin inhibition was measured against recombinant RAF1 using commercial substrate assays. […] RAF1 was overexpressed in HEK293T cells and measured recombinant RAF1 activity by comparing with non-transfected HEK293T (i.e. mock) proteomes.

A549 cells [1] = test: WST-1 Cell Proliferation Assay; format: cell-based; settings: for cell viability (WST-1), words: ritanserin, ketanserin 5-50 μM, staurosporine 1 μM
Experimental: (§1) WST-1 Cell Proliferation Assays. Tumor cells were plated in transparent tissue-culture treated 96-well plates at a density of 100,000 cells/mL (A549, H1650) or 200,000 cells/mL (H82) in a volume of 100 μL per well. Cells were treated with dimethyl sulfoxide (DMSO) vehicle or inhibitors dissolved in DMSO at the indicated concentrations (final DMSO concentration of 0.5%). Cells were allowed to grow for indicated times at 37° C. under 5% CO2. Afterwards, equal parts of WST-1 developer reagent and electron mediator solution were mixed and 10 μL of the resulting solution (‘WST-1 reagent’) were added to each well. Plates were shaken in an orbital shaker for 60 s and then returned to the incubator for two hrs. Plates were again shaken followed measurement of absorbance at 450 nm. Data were normalized to DMSO-treated wells and significance values determined with one-way ANOVA.

H1650 cells [2] = test: WST-1 Cell Proliferation Assay; format: cell-based; settings: for cell viability (WST-1), words: ritanserin, ketanserin 5-50 μM, staurosporine 1 μM
Experimental: as §1

H82 cells [3] = test: WST-1 Cell Proliferation Assay; format: cell-based; settings: for cell viability (WST-1), words: ritanserin, ketanserin 5-50 μM, staurosporine 1 μM
Experimental: as §1

A549 cells [4] = test: Cell Counts (Trypan Blue); format: cell-based; settings: 48 hrs; ritanserin 10 μM
Experimental: (§2) Cell Counts. Tumor cells were plated in 60 mm plates at a density of 100.000 cells/mL (A549. H1650) or 200,000 cells/mL (H82) and a volume of 3.5 mL/plate. Cells were treated with inhibitors at the indicated concentrations (final DMSO concentration of 0.5%) for 48 hrs at 37° C. under 5% CO2. After incubation, adherent cells were washed and detached with trypsin and all cells were collected and concentrated by spinning at 400×g for 3 min followed by aspiration of media. Cells were resuspended in […] Trypan Blue and 10 μL of this solution counted via a hemocytometer. Dead cells were excluded from all counts. Data were normalized to DMSO-treated wells and significance values determined with one-way ANOVA.

H1650 cells [5] = test: Cell Counts (Trypan Blue); format: cell-based; settings: 48 hrs; ritanserin 10 μM
Experimental: as §2

H82 cells [6] = test: Cell Counts (Trypan Blue); format: cell-based; settings: 48 hrs; ritanserin 10 μM
Experimental: as §2

CRAF = biological target: T2, CRAF (Homo sapiens, UniProt P04049); test: ATP acyl phosphate chemical proteomics in lung cancer cell proteomes; format: binding; settings: for CRAF ATP acyl-phosphate labeling response (words, FIG. 20): H82 and HEK293T lysates, 100 μM Rit, 1 mM RF001
T2 construct: measure selectivity of compounds against native kinases detected in lung cancer proteomes; endogenous in cells; host or cells: H82 small cell lung cancer (and HEK293T) cell lysates; CRAF not detected in A549
Experimental: LC-MS analysis of SILAC samples using ATP acyl phosphates. Quantitative chemoproteomics was performed as previously described (Franks et al., 2017; McCloud et al., 2018).
Computational Methods. Data for A549 and H82 cell lines were searched with IP2 and manually validated using the methods previously described (Franks et al., 2017). Data for Desthiobiotin-tagged ATP acyl-phosphate probes and ATP competitive peptides were compared and clustered. Ritanserin and ketanserin inhibition profiles were compared using SILAC ratios and normalized to DMSO.
Based on previous chemical proteomics (Franks, 2017), it was hypothesized that ritanserin is functioning as a kinase inhibitor to mediate cytotoxicity in the lung cancer cell models. […] For these studies, NSCLC and SCLC cells were cultured in isotopically light and heavy amino acids to enable quantitative chemical proteomics (Chang. 2015) by stable isotope labeling with amino acids in cell culture (SILAC, FIG. 17A). […] After probe labeling, light and heavy proteomes were combined, digested with trypsin protease, and desthiobiotin-modified peptides enriched by avidin affinity chromatography and analyzed by LC-MS/MS to identify and quantify isotopically tagged active-site peptides from native kinases as previously described(Franks, 2017) (FIG. 17A).
To further confirm that ritanserin is a CRAF inhibitor, a targeted parallel reaction monitoring method (PRM) was developed to evaluate compound activity against CRAF and other members of the RAF family (ARAF and BRAF). Targeted PRM was needed because of the low abundance of CRAF compared with ARAF and BRAF). […] Ritanserin activity was also measured against RAF kinases in A549 proteomes using the targeted LC-MS method. […] The data further support previous findings that this RAF member is enriched in SCLC cells (REF).

T2 sequence (P04049 whole entry): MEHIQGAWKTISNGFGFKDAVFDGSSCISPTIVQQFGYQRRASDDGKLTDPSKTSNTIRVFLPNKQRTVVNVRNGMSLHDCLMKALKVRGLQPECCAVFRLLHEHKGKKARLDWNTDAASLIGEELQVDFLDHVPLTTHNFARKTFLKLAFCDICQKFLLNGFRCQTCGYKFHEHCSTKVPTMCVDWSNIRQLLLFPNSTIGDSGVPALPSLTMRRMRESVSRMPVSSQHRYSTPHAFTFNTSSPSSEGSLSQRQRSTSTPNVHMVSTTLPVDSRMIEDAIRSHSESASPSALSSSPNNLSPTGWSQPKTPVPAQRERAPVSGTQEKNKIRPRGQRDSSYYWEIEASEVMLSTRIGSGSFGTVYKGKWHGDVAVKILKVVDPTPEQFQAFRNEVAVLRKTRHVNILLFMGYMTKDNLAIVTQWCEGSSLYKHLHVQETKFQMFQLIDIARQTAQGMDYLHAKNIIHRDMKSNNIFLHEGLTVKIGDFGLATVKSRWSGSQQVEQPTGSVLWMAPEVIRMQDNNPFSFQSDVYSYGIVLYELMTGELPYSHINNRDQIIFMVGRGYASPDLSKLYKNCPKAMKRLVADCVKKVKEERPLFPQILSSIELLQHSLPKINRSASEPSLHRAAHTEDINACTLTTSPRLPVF
T1 sequence (P04049 whole entry): as above

Row | SMILES | blockade of recombinant RAF1 activity (recombinant RAF1) | cell viability (WST-1), words (A549 cells [1]) | cell viability (WST-1), words (H1650 cells [2]) | cell viability (WST-1), words (H82 cells [3]) | cell killing (live cell counts) (A549 cells [4]) | cell killing (live cell counts) (H1650 cells [5]) | cell killing (live cell counts) (H82 cells [6]) | CRAF ATP acyl-phosphate labeling response (words, FIG. 20) (CRAF) | kinase target by SILAC ratio criterion (CRAF; 100 μM, A549 and H82 proteomes) | activity by targeted PRM (CRAF; H82 proteomes) | cell death (WST-1) (A549 cells [1]; 5 μM, two days) | cell death after 1 day (WST-1) (A549 cells [1]; 25 μM, 1 day) [%] | inhibition at 25 µM (A549 cells [1]; Homo sapiens, A549, 48 h, 25 μM, two days, read-out: inhibition of cell growth (WST-1)) [%] | cell death (WST-1) (H1650 cells [2]; 5 μM, two days) | cell death after 1 day (WST-1) (H1650 cells [2]; 25 μM, 1 day) [%] | inhibition at 25 µM (H1650 cells [2]; Homo sapiens, NCI-H1650, 48 h, 25 μM, two days, read-out: inhibition of cell growth (WST-1)) [%] | cell death (WST-1) (H82 cells [3]; 5 μM, two days) [%] | cell death after 1 day (WST-1) (H82 cells [3]; 25 μM, 1 day) [%] | inhibition at 25 µM (H82 cells [3]; Homo sapiens, NCI-H82, 48 h, 25 μM, two days, read-out: inhibition of cell growth (WST-1)) [%]
1 | O=C(c1ccc(F)cc1)C1CCN(CCn2c(=O)[nH]c3ccccc3c2=O)CC1 [Ketanserin] | not ketanserin | lack of activity | lack of activity | lack of activity | not ketanserin | not ketanserin | not ketanserin |  |  |  |  |  |  |  |  |  |  |  | 
2 | Fc1ccc(C(=C2CCNCC2)c2ccc(F)cc2)cc1 [RF001, 4-(Bis(4-fluorophenyl)methylene) piperidine] |  |  |  |  |  |  |  | inactivates CRAF |  |  |  |  |  |  |  |  |  |  | 
3 | Cc1nc2sccn2c(=O)c1CCN1CCC(=C(c2ccc(F)cc2)c2ccc(F)cc2)CC1 [Ritanserin] | concentrations dependent blockade of recombinant RAF1 activity | Concentration-dependent decreases in viability | Concentration-dependent decreases in viability | Concentration-dependent decreases in viability | ~70% | ~70% | ~70% | inactivates CRAF | most potent targets | potent activity against CRAF | 5-15% | > 50 | > 70 | 5-15% | > 50 | > 70 | ~50 | > 50 | > 70
